Reference: patent publication US6716809B1, “Mage-A3 peptides presented by HLA class molecules” (priority 1997, dated 2004)

Tests used:
Format in all cases: cell-based, human
[1] = test system: CD4+ clone 436/B6.37 (B6/37); assay: IFN-γ/TNF production by CD4+ clone B6/37 (clone 37) stimulated with peptide- or protein-pulsed EBV-B cells; conditions: for IFN-γ production by clone 37: autologous LB 1555 EBV-B cells; for IFN-γ production by clone B6/37, truncated peptides: autologous EBV-B cells pulsed with truncated peptides (FIG. 8)
Protocol: The microcultures that contained proliferating CD4^+ T cells were assessed around 35 days after the start of the culture for their capacity to produce TNF and/or IFN-γ when stimulated with autologous EBV-B cells pulsed with the His-MAGE-A3 protein. Autologous EBV-B cells (500,000/ml) were incubated for 18-20 hours at 37° C. in the presence of 20 μg/ml of His-MAGE-A3 protein, or Ovalbumin (Sigma) as a negative control. EBV-B cells referred to herein are B cells which were immortalized with Epstein Barr virus. The EBV-B cells were prepared according to art-standard procedures. Protein-pulsed EBV-B cells were washed and added at 5,000 per round-bottomed microwell to 2,500 CD4^+ T lymphocytes in 150 μl of complete Iscove's medium supplemented with L-glutamine, L-arginine, L-asparagine, 10% human serum and IL-2 (25 U/ml). After 18-20 hours, supernatants were harvested and assessed for TNF content by testing the cytotoxic effect of the supernatants on TNF-sensitive WEHI 164 clone 13 cells as previously described (Espevik and Nissen-Meyer, J. Immunol. Methods 95:99-105, 1986) in a MTT colorimetric assay as previously described (Hansen et al., J. Immunol. Methods 119:203-210, 1989; Traversari et al., Immunogenetics 35:145-152, 1992). IFN-γ production was measured using an ELISA assay developed in our laboratory (see below) with reagents from Medgenix Diagnostics-Biosource (Fleurus, Belgium). Inhibition with mAbs W6/32 (anti-HLA class I) or 2B6 (anti-HLA-DR) was performed by addition of a 1/20 dilution of ascites during the experiment. Cytokine secretion in response to autologous EBV-B cells pulsed with MAGE-A3 was considered significant if it was at least twofold above the background response of T cells to EBV-B cells pulsed with ovalbumin, and if it exceeded 500 pg of IFN-γ or 50 pg/ml of TNF per ml.
In order to identify the MAGE-A3 peptides recognized by these CD4^+ clones, 16 amino acid peptides, corresponding to parts of the MAGE-A3 protein sequence were synthesized, loaded on the autologous EBV-B cells and tested for recognition (FIGS. 4 and 5). Peptides were synthesized using F-moc for transient NH2-terminal protection and were characterized using mass spectrometry. […] Lyophilized synthetic peptides were dissolved in DMSO (Merck) and used at a final concentration of 500 μM, 50 μM or 5 μg/ml. EBV-B cells (5,000 per round-bottomed microwell) were incubated 2 hours at 37° C., 8% CO2 in the presence of the different peptides, the indicated concentrations representing the peptide concentration during the incubation step. CD4^+ clones were then added at 2,500 cells per well. Assay medium was Iscove's medium supplemented with L-glutamine, L-arginine, L-asparagine, 10% human serum and IL-2 (25 U/ml). After 18-20 hours, supernatants were harvested and assessed for TNF-α and/or IFN-γ secretion. IFN-γ production was measured using an ELISA test (20-4000 pg/ml) developed in the laboratory with reagents from Medgenix Diagnostics-Biosource (Fleurus, Belgium).
To further define the HLA-restriction element utilized by clone B6/37, additional EBV-B cell lines were used for peptide presentation as described above (FIG. 7).
(§1) Unlike HLA-class I-restricted peptides, class II-restricted peptides usually vary in length and tolerate extensions at both the amino and carboxy termini, because they are not fixed by their ends in the groove. It is therefore difficult to define precisely the length of the antigenic peptide. Therefore a large number of MAGE-A3 peptides were tested at different concentrations (Tables IV and V). […] 2500 cells of clone 37 were then cocultured for 20 h in round-bottomed microwells with 5000 peptide-pulsed cells. IFN-γ released in the supernatant of the cocultures was measured in an ELISA assay. The experiments were performed in triplicate.

LB1158 CD4+ clone 22 = assay: IFN-γ production by CD4+ clone 22 stimulated with peptide- or protein-pulsed EBV-B cells; conditions: HLA-DR13 EBV-B cells
Protocol: (§2) In order to confirm the efficacy of this protocol, dendritic cells were fed with the MAGE-3 protein, using conditions described above, to stimulate autologous CD4^+ T lymphocytes from hemochromatosis patient LB1158 or from melanoma patient 7002. After four restimulations, the specific production of IFN-γ by an aliquot of each of the microcultures stimulated with the autologous EBV-B cells loaded with MAGE-A3 were tested on day 35 for patient LB1158 and day 37 for patient 7002. For each individual, one positive microculture was cloned using autologous EBV-B cells as stimulating cells, either retrotransduced with MFG Ii MAGE-A3 for LB1158, or fed with protein MAGE-A3 for patient 7002. […] Specifically, autologous EBV-B cells were incubated for 20 h in the presence of 20 μg/ml of recombinant His-MAGE-A3 protein. Clone 22 (2500 cells) was incubated overnight with 5000 MAGE-A3 loaded EBV-B cells in round botton microwells in the presence or absence of monoclonal antibodies which recognize HLA-A,B,C (W6/32) or HLA-DR (2B6). IFN-γ secretion was measured after 20 h by ELISA (FIG. 15A).
(§3) Peptides corresponding to parts of MAGE-A3 (e.g., MAGE107-122, MAGE111-126, MAGE115-130, MAGE119-134) were tested for recognition by clone 2 and 22. HLA-DR13 EBV-B cells were pulsed for 2 h with different concentrations of these peptides. Clones 2 and 37 (2500 cells) were incubated with 5000 peptide pulsed cells in round-bottomed microwells for 20 h and assayed for IFN-γ production.
(§4) Autologous or allogeneic EBV-B cells were pulsed for 2 h with 1 μg/ml MAGE-A3119-134 peptide, and then washed. Clones 2 or 22 were incubated with 5000 peptide-pulsed EBV-B cells in round-bottomed microwells for 20 h and the clones' reactivity to the EBV-B cells was measured by ELISA as IFN-γ secretion. Experiments were performed in triplicate.
as §1, with “triplicate. […] Clones 2 and 22 (2500 cells) were then cocultured for 20 h in round-bottomed microwells with 5000 peptide-pulsed cells. IFN-γ released in the supernatant of the cocultures was measured in an ELISA assay. The experiments was performed twice in duplicates.” for “triplicate.”

7002 CD4+ clone 2 = assay: IFN-γ production by CD4+ clone 2 stimulated with peptide- or protein-pulsed EBV-B cells; conditions: HLA-DR13 EBV-B cells
Protocol: as §2, §3, §4
as §1, with “triplicate. […] Clones 2 and 22 (2500 cells) were then cocultured for 20 h in round-bottomed microwells with 5000 peptide-pulsed cells. IFN-γ released in the supernatant of the cocultures was measured in an ELISA assay. The experiments was performed twice in duplicates.” for “triplicate.”

[2] = peptide concentration 100 ng/ml
[3] = peptide concentration 300 ng/ml
[4] = peptide concentration 1000 ng/ml

Row | Substance | IFN-γ production by clone 37 ([1]; peptide concentration 1 ng/ml) | IFN-γ production by clone 37 ([1]; peptide concentration 3 ng/ml) | IFN-γ production by clone 37 ([1]; peptide concentration 10 ng/ml) | IFN-γ production by clone 37 ([1]; peptide concentration 30 ng/ml) | IFN-γ production by clone 37 [1, 2] | IFN-γ production by clone 37 [1, 3] | IFN-γ production by clone 37 [1, 4] | also measured
1 | AELVHFLLLKYRA (listed as Homo sapiens) | 134 pg/mL | 139 pg/mL | 620 pg/mL | 2523 pg/mL | >4000 pg/mL | >4000 pg/mL | >4000 pg/mL | 
2 | AELVHFLLLKYRAR (listed as Homo sapiens) | 151 pg/mL | 272 pg/mL | 802 pg/mL | 2862 pg/mL | >4000 pg/mL | >4000 pg/mL | >4000 pg/mL | recognition of short peptide by clone 37 ([1]; conclusion from Table IV): well recognized
3 | AELVHFLLLKYRARE (listed as Homo sapiens) | 38 pg/mL | 230 pg/mL | 235 pg/mL | 1473 pg/mL | 3837 pg/mL | >4000 pg/mL | >4000 pg/mL | 
4 | ELVHFLLLKYRA (listed as Homo sapiens) [MAGE-A3115-126] |  |  |  |  |  |  |  | IFN-γ production by clone B6/37, truncated peptides [1]: induced significant production
5 | ELVHFLLLKYRAR (listed as Homo sapiens) | 47 pg/mL | 192 pg/mL | 333 pg/mL | 1899 pg/mL | 3633 pg/mL | >4000 pg/mL | >4000 pg/mL | 
6 | ELVHFLLLKYRARE (listed as Homo sapiens) | 25 pg/mL | 160 pg/mL | 166 pg/mL | 1087 pg/mL | 3095 pg/mL | >4000 pg/mL | >4000 pg/mL | 
7 | FLLLKYRAREP (listed as Homo sapiens) |  |  |  |  |  |  |  | IFN-γ production by clone 22 (LB1158 CD4+ clone 22; peptide concentration 1 ng/ml): 0 pg/mL; IFN-γ production by clone 22 (LB1158 CD4+ clone 22; peptide concentration 3 ng/ml): 0 pg/mL; IFN-γ production by clone 22 (LB1158 CD4+ clone 22; peptide concentration 10 ng/ml): 1 pg/mL; IFN-γ production by clone 22 (LB1158 CD4+ clone 22; peptide concentration 30 ng/ml): 7 pg/mL; IFN-γ production by clone 22 (LB1158 CD4+ clone 22; [2]): 6 pg/mL; IFN-γ production by clone 22 (LB1158 CD4+ clone 22; [3]): 7 pg/mL; IFN-γ production by clone 22 (LB1158 CD4+ clone 22; [4]): 30 pg/mL; IFN-γ production by clone 2 (7002 CD4+ clone 2; peptide concentration 1 ng/ml): 0 pg/mL; IFN-γ production by clone 2 (7002 CD4+ clone 2; peptide concentration 3 ng/ml): 0 pg/mL; IFN-γ production by clone 2 (7002 CD4+ clone 2; peptide concentration 10 ng/ml): 0 pg/mL; IFN-γ production by clone 2 (7002 CD4+ clone 2; peptide concentration 30 ng/ml): 0 pg/mL; IFN-γ production by clone 2 (7002 CD4+ clone 2; [2]): 85 pg/mL; IFN-γ production by clone 2 (7002 CD4+ clone 2; [3]): 0 pg/mL; IFN-γ production by clone 2 (7002 CD4+ clone 2; [4]): 23 pg/mL
8 | FLLLKYRAREPV (listed as Homo sapiens) |  |  |  |  |  |  |  | IFN-γ production by clone 22 (LB1158 CD4+ clone 22; peptide concentration 1 ng/ml): 0 pg/mL; IFN-γ production by clone 22 (LB1158 CD4+ clone 22; peptide concentration 3 ng/ml): 3 pg/mL; IFN-γ production by clone 22 (LB1158 CD4+ clone 22; peptide concentration 10 ng/ml): 13 pg/mL; IFN-γ production by clone 22 (LB1158 CD4+ clone 22; peptide concentration 30 ng/ml): 132 pg/mL; IFN-γ production by clone 22 (LB1158 CD4+ clone 22; [2]): 383 pg/mL; IFN-γ production by clone 22 (LB1158 CD4+ clone 22; [3]): 746 pg/mL; IFN-γ production by clone 22 (LB1158 CD4+ clone 22; [4]): 1353 pg/mL; IFN-γ production by clone 2 (7002 CD4+ clone 2; peptide concentration 1 ng/ml): 0 pg/mL; IFN-γ production by clone 2 (7002 CD4+ clone 2; peptide concentration 3 ng/ml): 4 pg/mL; IFN-γ production by clone 2 (7002 CD4+ clone 2; peptide concentration 10 ng/ml): 78 pg/mL; IFN-γ production by clone 2 (7002 CD4+ clone 2; peptide concentration 30 ng/ml): 216 pg/mL; IFN-γ production by clone 2 (7002 CD4+ clone 2; [2]): 821 pg/mL; IFN-γ production by clone 2 (7002 CD4+ clone 2; [3]): 1632 pg/mL; IFN-γ production by clone 2 (7002 CD4+ clone 2; [4]): 2667 pg/mL
9 | MAGE-A3116-126: shortened MAGE-A3 peptide, residues 116-126 (LVHFLLLKYRA; listed as Homo sapiens) |  |  |  |  |  |  |  | IFN-γ production by clone B6/37, truncated peptides [1]: reduced amounts
10 | MAGE-A3118-126: shortened MAGE-A3 peptide, residues 118-126 |  |  |  |  |  |  |  | IFN-γ production by clone B6/37, truncated peptides [1]: did not induce the production of significant amounts
11 | VAELVHFLLLKYRA (listed as Homo sapiens) | 7 pg/mL | 179 pg/mL | 87 pg/mL | 648 pg/mL | 2534 pg/mL | >4000 pg/mL | >4000 pg/mL | 
12 | VAELVHFLLLKYRAR (listed as Homo sapiens) | 146 pg/mL | 262 pg/mL | 779 pg/mL | 2963 pg/mL | >4000 pg/mL | >4000 pg/mL | >4000 pg/mL | 
13 | VAELVHFLLLKYRARE (listed as Homo sapiens) | 30 pg/mL | 300 pg/mL | 376 pg/mL | 1647 pg/mL | >4000 pg/mL | >4000 pg/mL | >4000 pg/mL | 
14 | VHFLLLKYRA (listed as Homo sapiens) [MAGE-A3117-126] |  |  |  |  |  |  |  | IFN-γ production by clone B6/37, truncated peptides [1]: reduced amounts
